According to ChEMBL document CHEMBL1148758, “Guanidine and 2-aminoimidazoline aromatic derivatives as alpha(2)-adrenoceptor antagonists, 1: toward new antidepressants with heteroatomic linkers” (J Med Chem, 2007):

What was measured:
Type in all cases: functional
Rattus norvegicus [1] = test: Increase in noradrenergic extracellular noradrenaline level in locally administered Sprague-Dawley rat by microdialysis assay
[2] = target: T1, Adrenergic receptor alpha-2 (Homo sapiens, UniProt P08913+P18825+P18089); test: Agonist activity at human brain adrenergic alpha2 receptor by [35S]GTPgammaS binding assay
T1 sequence (P08913 whole entry): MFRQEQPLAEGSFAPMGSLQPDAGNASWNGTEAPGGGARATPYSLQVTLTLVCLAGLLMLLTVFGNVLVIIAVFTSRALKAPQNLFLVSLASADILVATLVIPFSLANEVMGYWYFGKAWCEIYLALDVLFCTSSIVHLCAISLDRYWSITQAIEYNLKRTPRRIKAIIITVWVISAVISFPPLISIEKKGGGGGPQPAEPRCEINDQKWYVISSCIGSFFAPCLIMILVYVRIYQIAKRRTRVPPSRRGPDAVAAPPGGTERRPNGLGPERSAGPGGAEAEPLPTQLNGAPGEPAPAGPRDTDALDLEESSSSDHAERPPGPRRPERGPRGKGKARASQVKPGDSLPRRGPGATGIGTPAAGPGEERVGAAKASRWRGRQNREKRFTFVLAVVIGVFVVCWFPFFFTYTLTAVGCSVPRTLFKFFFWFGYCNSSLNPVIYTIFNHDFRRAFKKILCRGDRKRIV
T1 sequence (P18825 whole entry): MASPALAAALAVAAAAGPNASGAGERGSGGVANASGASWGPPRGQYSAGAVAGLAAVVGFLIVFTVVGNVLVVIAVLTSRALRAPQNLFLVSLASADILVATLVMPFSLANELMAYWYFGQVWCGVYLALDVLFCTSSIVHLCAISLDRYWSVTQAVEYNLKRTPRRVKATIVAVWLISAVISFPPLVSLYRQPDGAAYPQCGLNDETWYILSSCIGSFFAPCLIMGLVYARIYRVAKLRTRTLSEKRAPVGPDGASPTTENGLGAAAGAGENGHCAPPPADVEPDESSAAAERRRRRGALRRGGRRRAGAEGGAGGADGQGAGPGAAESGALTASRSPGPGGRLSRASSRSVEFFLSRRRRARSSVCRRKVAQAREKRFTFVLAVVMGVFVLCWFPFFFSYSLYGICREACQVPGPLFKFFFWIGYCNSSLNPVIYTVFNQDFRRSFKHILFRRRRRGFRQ
T1 sequence (P18089 whole entry): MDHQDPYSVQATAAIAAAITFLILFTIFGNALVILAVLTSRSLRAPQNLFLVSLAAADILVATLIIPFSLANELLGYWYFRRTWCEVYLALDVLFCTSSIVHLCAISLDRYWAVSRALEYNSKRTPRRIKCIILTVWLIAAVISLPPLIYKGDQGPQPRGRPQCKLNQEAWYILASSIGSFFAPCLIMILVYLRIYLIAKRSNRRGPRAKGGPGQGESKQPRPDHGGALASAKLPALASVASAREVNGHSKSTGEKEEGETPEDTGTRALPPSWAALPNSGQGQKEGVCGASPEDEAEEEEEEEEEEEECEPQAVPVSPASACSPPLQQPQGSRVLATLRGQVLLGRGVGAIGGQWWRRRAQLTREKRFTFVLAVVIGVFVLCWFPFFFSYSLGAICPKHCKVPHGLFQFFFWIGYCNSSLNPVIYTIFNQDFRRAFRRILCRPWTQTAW

[3] = target: T1, Adrenergic receptor alpha-2; test: Antagonist activity at human brain adrenergic alpha-2 receptor assessed as UK-14304-stimulated [35S]GTPgammaS binding at 10 uM
Rattus norvegicus [4] = test: Increase in noradrenergic extracellular noradrenaline level in Sprague-Dawley rat at 8 mg/kg, ip by microdialysis assay; settings: route intraperitoneal

Structure (SMILES): COC1(C2=NCCN2)COc2ccccc2O1 (stereo not drawn)
- Activity (Rattus norvegicus [1]): 287%

Structure (SMILES): COc1ccc(NC2=NCCN2)cc1
- EC50 [2]: 30.4 µM

Structure (SMILES): c1cc2c(cc1NC1=NCCN1)OCO2
- Activity (Rattus norvegicus [1]): 240%
- EC50 [3]: 141 µM
- Activity (Rattus norvegicus [4]): 328%

Structure (SMILES): CN(C)c1ccc(NC2=NCCN2)cc1
- Activity (Rattus norvegicus [1]): 316%
- Activity (Rattus norvegicus [4]): 192%

Structure (SMILES): c1ccc2c(c1)OCC(C1=NCCN1)O2 (stereo not drawn) [IDAZOXAN]
- Activity (Rattus norvegicus [1]): 235%
